We go through 6 compounds from patent US9346799B2, “Useful combinations of monobactam antibiotics with beta-lactamase inhibitors” (Basilea Pharmaceutica AG, priority 2005, dated 2016).

What all share (test): MIC by broth microdilution (NCCLS M7-A5)
Background: Broth dilution looks for growth in wells or tubes with falling amounts of substance.

In experiment [1] the test system is Serratia marcescens S6.
For experiment [2], the system named is Pseudomonas aeruginosa MK1184.
The test system of experiment [3] is Klebsiella pneumoniae CF104.
In experiment [4] the test system is Stenotrophomonas malthophilia 1AC736. To be noted: Stenotrophomonas maltophilia 1AC736.
Experiment [5] has as its system Pseudomonas aeruginosa 1973E.
Experiment [6] has as its system Enterobacter cloacae P99.
The subject of experiment [7] is Acinetobacter sp. J2. The conditions noted are these: Acinetobacter baumannii J2.
Setting [8] is: + 102 + clavulanate, 4 mg/L each.
The mark [9] stands for this setting: + 324 + clavulanate, 4 mg/L each.

Take `C[C@H](ON1C(=O)[C@@H](NC(=O)/C(=N\OCc2cc(=O)c(O)cn2O)c2csc(N)n2)[C@@H]1C)C(=O)O` [Compound 23, (2S)-2-((3S,4S)-3-{(2Z)-2-(2-amino(1,3-thiazol-4-yl))-3-[(1,5-dihydroxy-4-oxo(2-hydropyridyl))methoxy]-3-azaprop-2-enoylamino}-4-methyl-2-oxoazetidinyloxy)propanoic acid]: the MIC of antibiotic in experiment [1] (setting [8]) was 0.25 µg/mL; in experiment [1] (setting [9]), 0.25 µg/mL; in experiment [1] (+ 324 + sulbactam, 4 mg/L each) it was 0.5 µg/mL; in experiment [1] (antibiotic alone), 0.25 µg/mL; in experiment [2] (setting [8]), 8 µg/mL; in experiment [2] (setting [9]), 8 µg/mL. Also, the MIC of antibiotic in experiment [2] (+ 324 + sulbactam, 4 mg/L each) was 8 µg/mL; in experiment [2] (antibiotic alone), 8 µg/mL; in experiment [3] (setting [8]), 1 µg/mL; in experiment [3] (setting [9]), 1 µg/mL; in experiment [3] (+ 324 + sulbactam, 4 mg/L each), 2 µg/mL; in experiment [3] (antibiotic alone), more than 32 µg/mL. For the same compound, the MIC of antibiotic in experiment [4] (antibiotic alone) amounted to 1 µg/mL; in experiment [5] (setting [8]), 8 µg/mL; in experiment [5] (setting [9]), 16 µg/mL; in experiment [5] (+ 324 + sulbactam, 4 mg/L each), 16 µg/mL; in experiment [5] (antibiotic alone), 8 µg/mL; in experiment [6] (setting [8]), 8 µg/mL. In addition, the MIC of antibiotic in experiment [6] (setting [9]) is 4 µg/mL; in experiment [6] (+ 324 + sulbactam, 4 mg/L each), 8 µg/mL; in experiment [6] (antibiotic alone), more than 32 µg/mL; in experiment [7] (setting [8]), 8 µg/mL; in experiment [7] (setting [9]) it was 8 µg/mL; in experiment [7] (+ 324 + sulbactam, 4 mg/L each) it was 2 µg/mL. In addition, the MIC of antibiotic in experiment [7] (antibiotic alone) turned out to be 16 µg/mL.

For the compound `NC(=O)OCC1C(NC(=O)C(=NOCc2cc(=O)c(O)cn2O)c2csc(N)n2)C(=O)N1OS(=O)(=O)O` (stereo not shown) [Compound 25], the MIC of antibiotic was 1 µg/mL in experiment [1] (setting [8]); 1 µg/mL in experiment [1] (setting [9]); 1 µg/mL in experiment [1] (antibiotic alone); 4 µg/mL in experiment [2] (setting [8]); 8 µg/mL in experiment [2] (setting [9]); more than 32 µg/mL in experiment [2] (antibiotic alone). In addition, the MIC of antibiotic in experiment [3] (setting [8]) is 0.5 µg/mL; in experiment [3] (setting [9]), 0.5 µg/mL; in experiment [3] (antibiotic alone), more than 32 µg/mL; in experiment [4] (setting [8]), 1 µg/mL; in experiment [4] (setting [9]), 1 µg/mL; in experiment [4] (antibiotic alone), 4 µg/mL. Also, the MIC of antibiotic in experiment [5] (setting [8]) is 4 µg/mL; in experiment [5] (setting [9]), 8 µg/mL; in experiment [5] (antibiotic alone) it was 16 µg/mL; in experiment [6] (setting [8]), 8 µg/mL; in experiment [6] (setting [9]), 4 µg/mL; in experiment [6] (antibiotic alone) it was more than 32 µg/mL. The MIC of antibiotic in experiment [7] (setting [8]) was 16 µg/mL; in experiment [7] (setting [9]) it was more than 32 µg/mL; in experiment [7] (antibiotic alone) it was more than 32 µg/mL.

Consider `CC1C(NC(=O)C(=NOCc2cc(=O)c(O)cn2O)c2csc(NC=O)n2)C(=O)N1S(=O)(=O)O` (stereo not shown) [Compound 28], for which the MIC of antibiotic in experiment [1] (setting [8]) was 16 µg/mL; in experiment [1] (antibiotic alone), 8 µg/mL; in experiment [2] (setting [8]), 32 µg/mL; in experiment [2] (antibiotic alone), more than 32 µg/mL; in experiment [3] (setting [8]), 2 µg/mL; in experiment [3] (antibiotic alone), more than 32 µg/mL. The MIC of antibiotic in experiment [4] (setting [8]) is 8 µg/mL; in experiment [4] (antibiotic alone), 8 µg/mL; in experiment [5] (setting [8]) it was 16 µg/mL; in experiment [5] (antibiotic alone), more than 32 µg/mL; in experiment [6] (setting [8]), 32 µg/mL; in experiment [6] (antibiotic alone) it was more than 32 µg/mL. Also, the MIC of antibiotic in experiment [7] (setting [8]) and in experiment [7] (antibiotic alone) was more than 32 µg/mL in each case.

For the compound `C[C@H]1[C@H](NC(=O)/C(=N\OCc2cc(=O)c(O)cn2O)c2nc(N)sc2Cl)C(=O)N1OS(=O)(=O)O` [Compound 29, (3S,4S)-3-{(2Z)-2-(2-amino-5-chloro(1,3-thiazol-4-yl))-3-[(1,5-dihydroxy-4-oxo(2-hydropyridyl))methoxy]-3-azaprop-2-enoylamino}-4-methyl-2-oxoazetidinyl hydroxysulfonate], the MIC of antibiotic is 1 µg/mL in experiment [1] (setting [8]); 8 µg/mL in experiment [1] (+ 102 + sulbactam, 4 mg/L each); 8 µg/mL in experiment [1] (+ 323 + sulbactam, 4 mg/L each); 32 µg/mL in experiment [1] (antibiotic alone); 8 µg/mL in experiment [2] (setting [8]); 4 µg/mL in experiment [2] (+ 102 + sulbactam, 4 mg/L each). The MIC of antibiotic is 8 µg/mL in experiment [2] (+ 323 + sulbactam, 4 mg/L each); more than 32 µg/mL in experiment [2] (antibiotic alone); 0.5 µg/mL in experiment [3] (setting [8]); 2 µg/mL in experiment [3] (+ 102 + sulbactam, 4 mg/L each); 2 µg/mL in experiment [3] (+ 323 + sulbactam, 4 mg/L each); more than 32 µg/mL in experiment [3] (antibiotic alone). The MIC of antibiotic in experiment [4] (setting [8]) came out at 0.5 µg/mL; in experiment [4] (+ 102 + sulbactam, 4 mg/L each), 1 µg/mL; in experiment [4] (+ 323 + sulbactam, 4 mg/L each), 1 µg/mL; in experiment [4] (antibiotic alone), 1 µg/mL; in experiment [5] (setting [8]), 8 µg/mL; in experiment [5] (+ 102 + sulbactam, 4 mg/L each), 8 µg/mL. The MIC of antibiotic in experiment [5] (+ 323 + sulbactam, 4 mg/L each) is 8 µg/mL; in experiment [5] (antibiotic alone), 4 µg/mL; in experiment [6] (setting [8]), 0.25 µg/mL; in experiment [6] (+ 102 + sulbactam, 4 mg/L each), 8 µg/mL; in experiment [6] (+ 323 + sulbactam, 4 mg/L each), 8 µg/mL; in experiment [6] (antibiotic alone), more than 32 µg/mL. Moreover, the MIC of antibiotic in experiment [7] (setting [8]) is more than 32 µg/mL; in experiment [7] (+ 102 + sulbactam, 4 mg/L each), 2 µg/mL; in experiment [7] (+ 323 + sulbactam, 4 mg/L each), 2 µg/mL; in experiment [7] (antibiotic alone), more than 32 µg/mL.

Turning to `CC1(C)C(NC(=O)C(=NOCc2cc(=O)c(O)cn2O)c2nsc(N)n2)C(=O)N1OS(=O)(=O)O` (stereo not shown) [Compound 32], the MIC of antibiotic was 0.5 µg/mL in experiment [1] (setting [8]); 0.25 µg/mL in experiment [1] (setting [9]); 4 µg/mL in experiment [2] (setting [8]); 4 µg/mL in experiment [2] (setting [9]); more than 32 µg/mL in experiment [3] (setting [8]); 1 µg/mL in experiment [3] (setting [9]). Also, the MIC of antibiotic in experiment [3] (antibiotic alone) worked out at 2 µg/mL; in experiment [4] (setting [8]), 0.5 µg/mL; in experiment [4] (setting [9]), 0.5 µg/mL; in experiment [5] (setting [8]), 16 µg/mL; in experiment [5] (setting [9]) it was 8 µg/mL; in experiment [6] (setting [8]) it was 32 µg/mL. In addition, the MIC of antibiotic in experiment [6] (setting [9]) was 8 µg/mL; in experiment [7] (setting [8]), more than 32 µg/mL; in experiment [7] (setting [9]), 4 µg/mL.

On to `CC1(C)C(NC(=O)C(=NOCc2cc(=O)c(O)cn2O)c2csc(N)n2)C(=O)N1OCC(=O)O` (stereo not shown) [Compound 33], for which the MIC of antibiotic in experiment [1] (setting [8]) worked out at 0.5 µg/mL; in experiment [1] (setting [9]) it was 0.25 µg/mL; in experiment [1] (antibiotic alone) it was 0.25 µg/mL; in experiment [2] (setting [8]), 32 µg/mL; in experiment [2] (setting [9]) it was 16 µg/mL; in experiment [2] (antibiotic alone) it was 32 µg/mL. The MIC of antibiotic in experiment [3] (setting [8]) came out at 2 µg/mL; in experiment [3] (setting [9]), 0.5 µg/mL; in experiment [3] (antibiotic alone), 0.5 µg/mL; in experiment [4] (setting [8]) it was 2 µg/mL; in experiment [4] (setting [9]), 2 µg/mL; in experiment [4] (antibiotic alone), 2 µg/mL. Also, the MIC of antibiotic in experiment [5] (setting [8]) came to 32 µg/mL; in experiment [5] (setting [9]) it was 16 µg/mL; in experiment [5] (antibiotic alone) it was 16 µg/mL; in experiment [6] (setting [8]), 32 µg/mL; in experiment [6] (setting [9]), 4 µg/mL; in experiment [6] (antibiotic alone), 16 µg/mL. Also, the MIC of antibiotic is more than 32 µg/mL in experiment [7] (setting [8]), 16 µg/mL in experiment [7] (setting [9]) and 8 µg/mL in experiment [7] (antibiotic alone).
